The text below walks through data of the OPERA property sets (Mansouri et al. 2018).

The term logP denotes a log measure of how a compound divides between an organic and an aqueous phase. Higher therefore signals higher lipophilicity.

For `CC=CC#CC#CC#CC=CC(Cl)CO` (stereo unspecified), the logP stood at 3.91.

For the compound `OCC=CC#CC#Cc1ccccc1`, the logP was 2.48.

`CC=CC#CC#Cc1ccccc1` yielded a logP of 4.76.

As to `CC=CC#CC=C1C=CC(=O)O1`, the logP is 2.09.

For the compound `O=CC=CC#CC#Cc1ccccc1`, the logP was 3.09.

On to `C=CC#Cc1ccc(-c2cccs2)s1`, for which the logP stood at 5.15.

The compound `c1csc(-c2ccc(-c3cccs3)s2)c1` yielded a logP of 5.57.

Take `CC=CC#CC#CC=CC(=O)OC`: the log partition coefficient (logP) was found to be 2.45.

With `CC#CC#Cc1ccc(C#CC(Cl)COC(C)=O)s1` (stereo unspecified), the logP was 4.6.

Compound `CC#CC#CC#Cc1ccccc1` yielded a logP of 4.91.

With `CC#CC#CC#CC=CC(=O)OC`, the logP was determined as 3.85.
